Data as given in patent publication US10071981B2, “Method of priming plants against abiotic stress factors” (Research Foundation of The City University of New York, priority 2014, dated 2018).

Legend:
[1] = system: Medicago truncatula plants; experiment: Real-time RT-PCR gene expression in leaves of drought-stressed plants; format: in vivo; details: pre-treated and stressed vs stressed alone plants; 30% MetOH; FIG. 7
[2] = system: Medicago truncatula plants; experiment: Proline content (ninhydrin assay) in leaves of drought-stressed plants; format: in vivo; details: 100 μM, 30% (v/v) MetOH; vs drought-stressed alone samples; FIG. 6
Method: Mature (40 d) Medicago truncatula ecotype Jemalong A17 plants were used for the purposes of this study. These were grown in soil medium under controlled, optimal growth conditions and were then subjected to drought stress. Drought was imposed by withholding watering for 9 d (for detailed growth and stress conditions see Filippou et al., 2011). Both NOSH and NOSH-aspirin were applied at 100 μM concentration by foliar spraying at the start of stress imposition. The hybrid donors were diluted in 70% (v/v) and 30% (v/v) methanol, 20% (v/v) acetone or 20% (v/v) DMSO. Cellular damage was evaluated by lipid peroxidation levels (TBARS content) and hydrogen peroxide (H2O2) content as previously described (Filippou et al., 2011; Tanou et al., 2012), while osmoprotective capacity was evaluated by proline content (ninhydrin assay) as previously described (Antoniou et al., 2013). […] Relative quantification of gene expression and statistical analysis of all qRT-PCR data (pairwise fixed reallocation randomization test) were performed using the REST software according to Pfaffl et al. (2002). […] In addition, proline content was evaluated as proline is a major osmoprotective molecule involved in the defense response of plants to abiotic stress conditions (Filippou et al., 2013b).

SMILES: O=C(CCCO[N+](=O)[O-])Oc1ccccc1C(=O)Oc1ccc(-c2cc(=S)ss2)cc1 [NOSH-A]
- FeSOD relative gene expression [1]: significant induction
- P5CR relative gene expression [1]: significant induction
- P5CS relative gene expression [1]: significant induction
- cAPX relative gene expression [1]: significant suppression
- proline content [2]: increased proline content
